Patent US20240124389A1, “COMPOUND OR SALT THEREOF, LIPID PARTICLES, AND PHARMACEUTICAL COMPOSITION” (FUJIFILM Corporation, priority 2021, published 2024)

Each compound was assayed on PTEN ASO (assay: Encapsulation rate of PTEN ASO in lipid particles). Settings: aminolipid 50 / DSPC 20 / cholesterol 28.5 / monostearyl PEG 1.5 mol %, lipid/nucleic acid 11.8 wt/wt.
Format: physicochemical
Protocol: The first lipid, phospholipid, cholesterol, and polyethylene glycol lipid (PEG lipid) shown in Table 3 were dissolved in ethanol at the molar ratio shown in Table 3 such that the total lipid concentration was 20 mmol/L to obtain the oil phase.
As the neutral lipid, 1,2-Distearoyl-sn-glycero-3-phosphocholine (DSPC, product name: COATSOME MC-8080, NOF corporation) was used. As the cholesterol, cholesterol (product name: Cholesterol HP; Nippon Seika Co., Ltd.) was used. As the PEG lipid, monostearyl PEG (product name: Polyethylene Glycol Monostearate (4E.O.), FUJIFILM Wako Pure Chemical Corporation) was used.
5 mg of PTEN ASO was dissolved in 1 mL of sterile water and diluted with a 10 mmol/L acetate buffer having a pH of 4 such that the nucleic acid concentration was 54.6 μmol/L, to obtain a water phase. Then the water phase and the oil phase were mixed together with a micromixer (see JP5288254B) using a syringe pump such that the volume ratio of water phase:oil phase was 3:1, and the mixed solution was two-fold diluted with a phosphate buffered physiological saline (PBS), thereby obtaining a dispersion of nucleic acid lipid particles.
30 μL of 3 mol/L aqueous sodium acetate solution and 9 μL of glycogen were added to 60 μL of the lipid particles retaining nucleic acids, and then 1.5 mL of ethanol was added thereto, so that only the nucleic acids were precipitated while the lipid was dissolved. Then, the supernatant was removed by centrifugation. The precipitates were air-dried for 15 minutes or longer, then water was added thereto to redissolve the precipitates, and the concentration thereof was measured using Nanodrop ND1000 (Thermo Fisher Scientific), thereby quantifying the total nucleic acid concentration.
The mRNA concentration was quantified using a Quant-iT RiboGreen RNA Assay Kit (Thermo Fisher Scientific) according to the protocol. First, a 20×TE buffer included in the above-described kit was diluted with water, thereby obtaining a 1×TE buffer. TE represents Tris/EDTA (ethylenediaminetetraacetic acid). In order to quantify only the nucleic acid in the outer water phase, the dispersion liquid of lipid particles retaining nucleic acids was 10,000-fold diluted with the 1×TE buffer.
100 μL of the 10,000-fold diluted dispersion liquid of lipid particles was put into a 96-well plate, then 100 μL of a RiboGreen reagent (reagent included in the Quanti-iT Ribogreen RNA Assay Kit described above) 2,000-fold diluted with the 1×TE buffer was added to a sample, and fluorescence (excitation wavelength: 485 nm, fluorescence wavelength: 535 nm) was measured using a plate reader Infinite F200 (TECAN), thereby quantifying the nucleic acid concentration in the outer water phase.
By using the quantification results of the total nucleic acid concentration and the nucleic acid concentration in the outer water phase that were obtained through the above steps, the nucleic acid encapsulation rate of the nucleic acid lipid particles was calculated according to the following Equation.
Nucleic acid encapsulation rate (%)=(total nucleic acid concentration—nucleic acid concentration in outer water phase)/total nucleic acid concentration×100

Row | Nucleic acid encapsulation rate [%] | Compound
1 | 93 | CCCCCCC(CCCC)COC(=O)CCCC(CCCCCC)OC(=O)OCCN(CCOC(=O)OC(CCCCCC)CCCC(=O)OCC(CCCC)CCCCCC)CCN(CC)CC (centres unmarked) [Example 8, Bis(2-butyloctyl) 11-(2-(diethylamino)ethyl)-5,17-dihexyl-7,15-dioxo-6,8,14,16-tetraoxa-11-azahenicosanedioate]
2 | 97 | CCCCCCC(CCCC(=O)OCC(CCCCC)CCCCC)OC(=O)OCCN(CCCN(CC)CC)CCOC(=O)OC(CCCCCC)CCCC(=O)OCC(CCCCC)CCCCC (centres unmarked) [Example 13, Bis(2-pentylheptyl) 11-(3-(diethylamino)propyl)-5,17-dihexyl-7,15-dioxo-6,8,14,16-tetraoxa-11-azahenicosanedio ate]
3 | 96 | CCCCCC(CCCCC)COC(=O)CCCC(CCC)OC(=O)OCCN(CCOC(=O)OC(CCC)CCCC(=O)OCC(CCCCC)CCCCC)CCN(CC)CC (centres unmarked) [Example 21, Bis(2-pentylheptyl) 11-(2-(diethylamino)ethyl)-7,15-dioxo-5,17-dipropyl-6,8,14,16-tetraoxa-11-azahenicosanedioate]
4 | 92 | CCCCCCCOC(=O)CCCC(CCCC(=O)OCCCCCCC)OC(=O)OCCN(CCOC(=O)OC(CCCC(=O)OCCCCCCC)CCCC(=O)OCCCCCCC)CCN(CC)CC [Example 29, diheptyl 11-(2-(diethylamino)ethyl)-5,17-bis(4-(heptyloxy)-4-oxobutyl)-7,15-dioxo-6,8,14,16-tetraoxa-11-azahenicosanedioate]
5 | 92 | CCCCCCCOC(=O)CCCC(CCCC(=O)OCCCCCCC)OC(=O)OCCN(CCOC(=O)OC(CCCC(=O)OCCCCCC)CCCC(=O)OCCCCCC)CCN(CC)CC [Example 37, 1-Heptyl 21-hexyl 11-(2-(diethylamino)ethyl)-5-(4-(heptyloxy)-4-oxobutyl)-17-(4-(hexyloxy)-4-oxobutyl)-7,15-d ioxo-6,8,14,16-tetraoxa-11-azahenicosanedioate]
